{"source": "paper PMC4140852", "about": "(PLoS Pathogens, 2014)", "molecular_target": "T1, APRc (rAPRc activation product, rAPRc105-231) (Rickettsia conorii, UniProt Q92FY8)", "T1 construct": "gene RC1339", "T1 sequence (Q92FY8 105-231 limits assumed)": "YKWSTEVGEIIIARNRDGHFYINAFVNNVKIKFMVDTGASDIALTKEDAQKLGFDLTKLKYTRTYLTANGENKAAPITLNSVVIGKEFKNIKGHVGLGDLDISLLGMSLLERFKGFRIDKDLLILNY", "type": "biochemical", "data": [{"smiles": "CC(C)(C)NC(=O)[C@@H]1CN(Cc2cccnc2)CCN1C[C@@H](O)C[C@@H](Cc1ccccc1)C(=O)N[C@H]1c2ccccc2C[C@H]1O", "note": "[indinavir]", "values": [{"measurement": "% inhibition at 0.25 mM", "result": "incubation with indinavir resulted in a near complete inhibition of APRc"}]}]}
